Reference: PubChem BioAssay AID504646 (Southern Research Specialized Biocontainment Screening …, 2011)
Where “and” joins values, the source holds several entries; their conditions need not be identical. Identical values can stand only once. Calls of active or inactive are those of the source. How the calls were made is not given here.

system: Mycobacterium tuberculosis growth in 7H9 media; experiment: M. tuberculosis growth inhibition in 7H9, dose response, 7H9 media, purified and synthesized samples, set 3 (AID 504646); settings: not given

With `Cc1nc(SCC(=O)NC2CCCCC2)[nH]c(=O)c1C` as the compound, how does the IC50 read?
The IC50 was 340 nM and 1860 nM.

With `COC(=O)C1CC(=O)N(c2ccc(OCc3ccccc3Cl)cc2)C1` (stereo not given) as the compound, how does the IC50 read?
The IC50 was 470 nM.

For `CCOC(=O)c1ccc(NC(=O)Cn2ncc(Cl)c(Cl)c2=O)cc1`, which IC50 is on record?
Its IC50 is 330 nM.

For `Nc1c(C(=O)NC2CCCCC2)nsc1C(=O)OCC(=O)NC1CCCCC1`, which IC50 is on record?
Its IC50 is 1110 nM.

Which IC50 does the source give for `CCOC(=O)CSc1ncnc2c1cnn2-c1ccccc1` here?
Its IC50 is 11200 nM.

Which IC50 does the source give for `COC(=O)CSc1ncnc2c1cnn2-c1ccc(C)cc1C` here?
Its IC50 is 4720 nM.

Which IC50 does the source give for `CCOC(=O)C(C)Sc1ncnc2c1nnn2-c1ccc(F)cc1` (stereo not given) here?
Its IC50 is 850 nM and 3120 nM.

same assay, conditions: 90% growth inhibition concentration

With `Cc1nc(SCC(=O)NC2CCCCC2)[nH]c(=O)c1C` as the compound, how does the IC90 read?
Its IC90 is 830 nM and 3170 nM.

For `O=C(c1ccc(CNc2c(N3CCCC3)c(=O)c2=O)cc1)N1CCN(C2CCCCC2)CC1`, which IC90 is on record?
Its IC90 is over 25000 nM.

For `COC(=O)C1CC(=O)N(c2ccc(OCc3ccccc3Cl)cc2)C1` (stereo not given), which IC90 is on record?
The IC90 was 2740 nM.

With `CCOC(=O)c1ccc(NC(=O)Cn2ncc(Cl)c(Cl)c2=O)cc1` as the compound, how does the IC90 read?
Its IC90 is 1200 nM.

For `Nc1c(C(=O)NC2CCCCC2)nsc1C(=O)OCC(=O)NC1CCCCC1`, which IC90 is on record?
Its IC90 is 2460 nM.

For `CCOC(=O)CSc1ncnc2c1cnn2-c1ccccc1`, which IC90 is on record?
The IC90 was over 25000 nM.

With `COC(=O)CSc1ncnc2c1cnn2-c1ccc(C)cc1C` as the compound, how does the IC90 read?
The IC90 was 7300 nM.

Which IC90 does the source give for `CCOC(=O)C(C)Sc1ncnc2c1nnn2-c1ccc(F)cc1` (stereo not given) here?
The IC90 was 3420 nM and 8230 nM.

system: not listed separately; experiment: as above; settings: Mycobacterium tuberculosis growth in 7H9 media; at 25 µM (top of the series)

Which growth inhibition does the source give for `COc1ccc(NC(=O)CSc2nc(NS(=O)(=O)c3ccc(C)cc3)cc(=O)[nH]2)cc1` here?
Its growth inhibition is 1.44% (inactive).

Which growth inhibition does the source give for `O=C(CSc1ccccn1)NC1CCCCC1` here?
The growth inhibition was -4.91% (inactive).

Which growth inhibition does the source give for `COC(=O)C(Nc1nc(SCC(=O)NC2CCCCC2)nc2ccccc12)c1ccccc1` (stereo not given) here?
Its growth inhibition is -0.22% (inactive).

With `Cc1[nH]c(=S)[nH]c(=O)c1C` as the compound, how does the growth inhibition read?
Its growth inhibition is -8.11% (inactive).

Which growth inhibition does the source give for `CN(C(=O)CSc1nc2ccccc2c(=O)[nH]1)C1CCCCC1` here?
The growth inhibition was -6.94% (inactive).

With `CCc1c(O)nc(SCC(=O)Nc2ccc(OC)cc2)n(C2CCCCC2)c1=O` as the compound, how does the growth inhibition read?
Its growth inhibition is -2.19% (inactive).

For `CCOC(=O)N1CCC(Nc2c(Nc3cccc(CC)c3)c(=O)c2=O)CC1`, which growth inhibition is on record?
Its growth inhibition is 17.3% (inactive).

Which growth inhibition does the source give for `COC(=O)c1ccc(CNc2c(N3CCCC3)c(=O)c2=O)cc1` here?
The growth inhibition was -13.4% (inactive).

For `Cc1cccc(N2CCN(C(=O)c3ccc(CNc4c(N5CCC(C)CC5)c(=O)c4=O)cc3)CC2C)c1` (stereo not given), which growth inhibition is on record?
Its growth inhibition is -1.5% (inactive).

Which growth inhibition does the source give for `CCc1cc(=O)[nH]c(SCC(=O)Nc2ccc3c(c2)OCCO3)n1` here?
The growth inhibition was 3.59% (inactive).

For `CCOC(=O)CSc1nc(C)c(C)c(=O)[nH]1`, which growth inhibition is on record?
The growth inhibition was -7.78% (inactive).

For `Oc1ccccc1/C=N/Nc1ccnc(SCc2ccccc2)n1`, which growth inhibition is on record?
Its growth inhibition is 2.73% (inactive).

With `CCC(Sc1nc(=O)cc(N)n1-c1ccccc1)C(=O)Nc1cc(C)on1` (stereo not given) as the compound, how does the growth inhibition read?
Its growth inhibition is -3.83% (inactive).

For `CC1CCN(C(=O)CSc2nc3ccccc3c(=O)[nH]2)CC1`, which growth inhibition is on record?
The growth inhibition was 2.14% (inactive).

For `COc1ccc(-c2noc(CSc3nc(N)c(-c4ccccc4)c(=O)[nH]3)n2)cc1OC`, which growth inhibition is on record?
The growth inhibition was -5.09% (inactive).

With `CCOC(=O)N1CCC(Nc2c(N3CCN(c4cccc(C(F)(F)F)c4)CC3)c(=O)c2=O)CC1` as the compound, how does the growth inhibition read?
The growth inhibition was -1.75% (inactive).

With `Cc1c[nH]c(=S)[nH]c1=O` as the compound, how does the growth inhibition read?
Its growth inhibition is -6.2% (inactive).

With `CCOC(=O)C(CC)Sc1ncnc2c1nnn2-c1ccc(F)cc1` (stereo not given) as the compound, how does the growth inhibition read?
The growth inhibition was 12.2% (inactive).

For `Cc1ccc(NC(=O)CSc2nc(N)c(-c3ccccc3)c(=O)[nH]2)cc1Cl`, which growth inhibition is on record?
Its growth inhibition is -2.34% (inactive).

Which growth inhibition does the source give for `CC(NC(=O)CSc1nc2ccccc2c(=O)[nH]1)c1ccccc1` (stereo not given) here?
The growth inhibition was -9.84% (inactive).

Which growth inhibition does the source give for `CCCc1cc(=O)[nH]c(SCC(=O)Nc2cc3c(cc2C(C)=O)OCO3)n1` here?
Its growth inhibition is 3.07% (inactive).

Which growth inhibition does the source give for `Cc1nc(SCC(=O)N(C)c2ccccc2)[nH]c(=O)c1C` here?
The growth inhibition was -13.6% (inactive).

Which growth inhibition does the source give for `Cc1nc(SCc2ccccc2Cl)[nH]c(=O)c1C` here?
Its growth inhibition is -6.95% (inactive).

Which growth inhibition does the source give for `CCOc1ccc(NC(=O)CSc2nc(N)c(-c3ccccc3)c(=O)[nH]2)cc1` here?
Its growth inhibition is 0.19% (inactive).

For `Cc1cc(=O)[nH]c(SCC(=O)Nc2ncc(S(=O)(=O)c3ccc([N+](=O)[O-])cc3)s2)n1`, which growth inhibition is on record?
The growth inhibition was -1.38% (inactive).

Which growth inhibition does the source give for `CCOc1ccc2nc(NC(=O)C(CC)Sc3nc(C)cc(=O)[nH]3)sc2c1` (stereo not given) here?
Its growth inhibition is 2.52% (inactive).

Which growth inhibition does the source give for `O=C(C1CCC(CNc2c(N3CCCCC3)c(=O)c2=O)CC1)N1CCCCC1` (stereo not given) here?
Its growth inhibition is -2.59% (inactive).

Which growth inhibition does the source give for `Cc1cc(=O)[nH]c(=S)[nH]1` here?
The growth inhibition was -1.28% (inactive).

With `Cc1ccc(NC(=O)CSc2nc(N)cc(=O)[nH]2)cc1Cl` as the compound, how does the growth inhibition read?
The growth inhibition was 2.55% (inactive).

With `Cc1cc(C)cc(NC(=O)CSc2nc3c(c(=O)[nH]2)CN(Cc2ccc(F)cc2)CC3)c1` as the compound, how does the growth inhibition read?
Its growth inhibition is -0.33% (inactive).

With `Cc1[nH]c2ccccc2c1C(=O)COC(=O)c1ccc([N+](=O)[O-])s1` as the compound, how does the growth inhibition read?
The growth inhibition was -5.99% (inactive).

Which growth inhibition does the source give for `C=CCn1c(SCC(=O)Nc2cccc3ccccc23)nc(O)c(CC)c1=O` here?
Its growth inhibition is 26.9% (inactive).

Which growth inhibition does the source give for `CCSc1nc2ccccc2c(=O)[nH]1` here?
The growth inhibition was -4.76% (inactive).

For `CCSc1nc(C)c(C)c(=O)[nH]1`, which growth inhibition is on record?
Its growth inhibition is 1.07% (inactive).

For `CCOc1ccc(NC(=O)c2ccc(CNc3c(N4CCCC4)c(=O)c3=O)cc2)cc1`, which growth inhibition is on record?
The growth inhibition was 0.32% (inactive).

For `O=C(CSc1ncccn1)NC1CCCCC1`, which growth inhibition is on record?
Its growth inhibition is -5.77% (inactive).

With `Cc1nc(SCC(N)=O)[nH]c(=O)c1C` as the compound, how does the growth inhibition read?
The growth inhibition was -2.97% (inactive).

With `O=c1[nH]c(=S)[nH]c2ccccc12` as the compound, how does the growth inhibition read?
Its growth inhibition is -8.06% (inactive).

For `Nc1cc(=O)[nH]c(SCC(=O)Nc2ccc(Oc3ccccc3)cc2)n1`, which growth inhibition is on record?
The growth inhibition was -0.36% (inactive).

Which growth inhibition does the source give for `Nc1cc(=O)[nH]c(SCC(=O)Nc2ccccc2-c2ccccc2)n1` here?
The growth inhibition was -1.58% (inactive).
